Results: US8569344B2, “N-piperidinyl acetamide derivatives as calcium channel blockers” (Zalicus Pharmaceuticals Ltd., priority 2008, dated 2013)

What was measured:
[1] = system: spinal nerve ligation model of neuropathic pain; conditions: rats; Dogrul et al., Pain (2003); cited from earlier work
[2] = molecular target: T1, human α1G T-type channels (Homo sapiens, UniProt O43497); assay: T-type calcium channel block, whole cell patch clamp in HEK cells (α1G); type: cell-based; conditions: HEK cells, patch clamp, mainly non-inactivated protocol; values above 10 μM shown as 10 μM, below 0.30 μM shown as 0.30 μM; read-out: T-type Calcium Channel Block α1G IC50
T1 construct: expressed in transfected cells; host or cells: HEK 293

[3] = molecular target: T2, human α1H T-type channels (Homo sapiens, UniProt O95180); assay: T-type calcium channel block, whole cell patch clamp in HEK cells (α1H); type: cell-based; conditions: HEK cells, patch clamp, mainly non-inactivated protocol; values above 10 μM shown as 10 μM; read-out: T-type Calcium Channel Block α1H IC50
T2 construct: expressed in transfected cells; host or cells: HEK 293

[4] = molecular target: hERG K+ channel (Homo sapiens, UniProt Q12809); assay: hERG K+ Channel Block; type: cell-based; conditions: human
[5] = system: absence seizures in GAERS rats; assay: GAERS (Genetic Absence Epilepsy Rats from Strasbourg) epilepsy model, EEG spike and wave discharges; type: in vivo, rat; conditions: for Percent Recording Time in Seizure Activity, Baseline: 60 minutes pre-injection EEG recording; for Percent Recording Time in Seizure Activity, Post-injection: 120 minutes post-injection EEG recording starting 15 minutes post-drug
Source text: The GAERS (Genetic Absence Epilepsy Rats from Strasbourg) is noted for its long and frequently recurring absence seizure episodes. […] Eight female GAERS rats, bred in the Ludwig Institute for Cancer Research, were used for this study. Rats weighed between 180 and 250 g and aged between 18 and 26 weeks at the start of the experiment.
Electrodes were made in our laboratory by soldering together gold-plated sockets (220-S02 Ginder Scientific, VA, Canada), stainless steel teflon coated wire (SDR clinical technology, NSW, Australia) and a small stainless steel screw (1.4×3 mm, Mr. Specks, Australia). Animals were anaethetised with inhalation of Isoflurane in equal parts of medical air and oxygen (5% induction, 2.5-1.5% maintenance) or alternatively by intraperitoneal injection with xylazine (10 mg/kg) and ketamine (75 mg/kg). The animals were fixated in a stereotaxic frame by means of ear bars. A midline incision on the scalp was made, skin and connective tissue was scraped and pushed laterally to expose underlying skull. 6 holes were drilled bilaterally, 2 in the frontal bone and 4 in the parietal bone, approximately 2 mm anterior to bregma, and 4 and 10 mm posterior to bregma. 6 electrodes were implanted in the holes, and gold-plated sockets were clipped into 9-pin ABS plug (GS09PLG-220, Ginder Scientific, Canada). 2 two side-anchoring screws were placed laterally into skull to improve strength of cap fixation, then caps were held in place with dental cement.
Post-operatively, animals were given the analgesic Rimadyl (4 mg/kg), placed in their cages on a heat mat, and observed until recovery. Rats were caged separately throughout the study, weighed and health-checked daily, and were allowed 7 days to recover prior to commencement of the experimental procedures. Rats were allowed free access to rodent chow (brand, WA stock feeders) and water under 12:12 light dark conditions in the Biological Research Facility of the Department of Medicine (RMH).
Prior to first drug treatment, rats were tested for absence-type seizures, which are accompanied by generalised spike and wave discharges (SWD) on an EEG recording. Testing, and all further experiments were performed in a quiet, well lit room with rats in their home cages. Rats were connected via 6-channel wire cables, which were cut and soldered to 6 gold-plated pins inserted into a 9 pin socket. Cables were connected to a computer running Compumedics™ EEG acquisition software (Melbourne, Australia). […] On week 1, day 1 after the acclimation period following surgical implantation of subdural electrodes, 4 animals (#1-4) were habituated with the cable connected for 15 minutes, then had their SWDs recorded for 60 minutes as baseline. Immediately following baseline, rats were given one of the test, reference or control articles according to the treatment schedule, and target period was recorded from 15 after injection for 120 minutes. Animals were monitored throughout the experiment, and were kept quietly wakeful during baseline and target periods
The seizure expression for the 60 minutes pre-injection and 120 minutes post-injection EEG recording (starting 15 minutes post-drug administration) was quantified by marking the start and finish of the burst of SWDs. This was done with the assistance of SWCFinder® software which has been custom designed to quantitate GAERS seizures, and researchers were blinded to the nature of the drug administered, whereby the analysis was performed blinded. Standard criteria for GAERS seizures is an SWD burst of amplitude of more than three times baseline, a frequency of 7 to 12 Hz, and a duration of longer than 0.5 s. From this, the total percent time spent in seizure over the 120 minutes post-injection EEG recording was determined (percentage time in seizure) as the primary outcome variable.

hERG K+ channel, sequence (Q12809 whole entry): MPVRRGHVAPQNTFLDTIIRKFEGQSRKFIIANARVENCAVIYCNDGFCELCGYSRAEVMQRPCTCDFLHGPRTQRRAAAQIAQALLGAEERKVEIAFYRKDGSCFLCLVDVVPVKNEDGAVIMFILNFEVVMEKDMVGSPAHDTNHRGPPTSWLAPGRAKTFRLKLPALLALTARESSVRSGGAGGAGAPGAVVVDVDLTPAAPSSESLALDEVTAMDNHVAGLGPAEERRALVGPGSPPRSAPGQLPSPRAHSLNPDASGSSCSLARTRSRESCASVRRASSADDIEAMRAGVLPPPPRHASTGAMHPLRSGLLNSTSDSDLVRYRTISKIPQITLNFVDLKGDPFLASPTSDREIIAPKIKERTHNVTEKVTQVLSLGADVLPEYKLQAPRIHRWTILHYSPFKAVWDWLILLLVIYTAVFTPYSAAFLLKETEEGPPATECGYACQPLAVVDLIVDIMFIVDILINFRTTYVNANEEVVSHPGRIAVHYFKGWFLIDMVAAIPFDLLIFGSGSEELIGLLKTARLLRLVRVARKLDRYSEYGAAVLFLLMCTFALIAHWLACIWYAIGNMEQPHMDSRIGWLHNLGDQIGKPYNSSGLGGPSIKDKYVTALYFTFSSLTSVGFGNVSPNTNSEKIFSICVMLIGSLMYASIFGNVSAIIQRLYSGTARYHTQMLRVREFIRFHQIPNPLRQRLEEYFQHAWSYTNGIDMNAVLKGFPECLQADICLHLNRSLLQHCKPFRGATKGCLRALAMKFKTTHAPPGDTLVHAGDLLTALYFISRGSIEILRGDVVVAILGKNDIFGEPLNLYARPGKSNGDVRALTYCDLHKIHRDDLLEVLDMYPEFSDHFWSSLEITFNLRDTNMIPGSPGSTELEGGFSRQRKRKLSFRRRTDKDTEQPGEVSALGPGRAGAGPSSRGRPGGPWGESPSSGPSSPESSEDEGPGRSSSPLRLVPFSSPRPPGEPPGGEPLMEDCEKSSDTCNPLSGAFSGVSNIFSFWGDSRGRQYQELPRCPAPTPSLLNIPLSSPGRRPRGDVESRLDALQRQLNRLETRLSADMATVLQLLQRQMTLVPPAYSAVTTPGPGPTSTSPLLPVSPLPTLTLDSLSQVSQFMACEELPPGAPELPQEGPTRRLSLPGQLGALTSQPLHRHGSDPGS
T2 sequence (O95180 whole entry): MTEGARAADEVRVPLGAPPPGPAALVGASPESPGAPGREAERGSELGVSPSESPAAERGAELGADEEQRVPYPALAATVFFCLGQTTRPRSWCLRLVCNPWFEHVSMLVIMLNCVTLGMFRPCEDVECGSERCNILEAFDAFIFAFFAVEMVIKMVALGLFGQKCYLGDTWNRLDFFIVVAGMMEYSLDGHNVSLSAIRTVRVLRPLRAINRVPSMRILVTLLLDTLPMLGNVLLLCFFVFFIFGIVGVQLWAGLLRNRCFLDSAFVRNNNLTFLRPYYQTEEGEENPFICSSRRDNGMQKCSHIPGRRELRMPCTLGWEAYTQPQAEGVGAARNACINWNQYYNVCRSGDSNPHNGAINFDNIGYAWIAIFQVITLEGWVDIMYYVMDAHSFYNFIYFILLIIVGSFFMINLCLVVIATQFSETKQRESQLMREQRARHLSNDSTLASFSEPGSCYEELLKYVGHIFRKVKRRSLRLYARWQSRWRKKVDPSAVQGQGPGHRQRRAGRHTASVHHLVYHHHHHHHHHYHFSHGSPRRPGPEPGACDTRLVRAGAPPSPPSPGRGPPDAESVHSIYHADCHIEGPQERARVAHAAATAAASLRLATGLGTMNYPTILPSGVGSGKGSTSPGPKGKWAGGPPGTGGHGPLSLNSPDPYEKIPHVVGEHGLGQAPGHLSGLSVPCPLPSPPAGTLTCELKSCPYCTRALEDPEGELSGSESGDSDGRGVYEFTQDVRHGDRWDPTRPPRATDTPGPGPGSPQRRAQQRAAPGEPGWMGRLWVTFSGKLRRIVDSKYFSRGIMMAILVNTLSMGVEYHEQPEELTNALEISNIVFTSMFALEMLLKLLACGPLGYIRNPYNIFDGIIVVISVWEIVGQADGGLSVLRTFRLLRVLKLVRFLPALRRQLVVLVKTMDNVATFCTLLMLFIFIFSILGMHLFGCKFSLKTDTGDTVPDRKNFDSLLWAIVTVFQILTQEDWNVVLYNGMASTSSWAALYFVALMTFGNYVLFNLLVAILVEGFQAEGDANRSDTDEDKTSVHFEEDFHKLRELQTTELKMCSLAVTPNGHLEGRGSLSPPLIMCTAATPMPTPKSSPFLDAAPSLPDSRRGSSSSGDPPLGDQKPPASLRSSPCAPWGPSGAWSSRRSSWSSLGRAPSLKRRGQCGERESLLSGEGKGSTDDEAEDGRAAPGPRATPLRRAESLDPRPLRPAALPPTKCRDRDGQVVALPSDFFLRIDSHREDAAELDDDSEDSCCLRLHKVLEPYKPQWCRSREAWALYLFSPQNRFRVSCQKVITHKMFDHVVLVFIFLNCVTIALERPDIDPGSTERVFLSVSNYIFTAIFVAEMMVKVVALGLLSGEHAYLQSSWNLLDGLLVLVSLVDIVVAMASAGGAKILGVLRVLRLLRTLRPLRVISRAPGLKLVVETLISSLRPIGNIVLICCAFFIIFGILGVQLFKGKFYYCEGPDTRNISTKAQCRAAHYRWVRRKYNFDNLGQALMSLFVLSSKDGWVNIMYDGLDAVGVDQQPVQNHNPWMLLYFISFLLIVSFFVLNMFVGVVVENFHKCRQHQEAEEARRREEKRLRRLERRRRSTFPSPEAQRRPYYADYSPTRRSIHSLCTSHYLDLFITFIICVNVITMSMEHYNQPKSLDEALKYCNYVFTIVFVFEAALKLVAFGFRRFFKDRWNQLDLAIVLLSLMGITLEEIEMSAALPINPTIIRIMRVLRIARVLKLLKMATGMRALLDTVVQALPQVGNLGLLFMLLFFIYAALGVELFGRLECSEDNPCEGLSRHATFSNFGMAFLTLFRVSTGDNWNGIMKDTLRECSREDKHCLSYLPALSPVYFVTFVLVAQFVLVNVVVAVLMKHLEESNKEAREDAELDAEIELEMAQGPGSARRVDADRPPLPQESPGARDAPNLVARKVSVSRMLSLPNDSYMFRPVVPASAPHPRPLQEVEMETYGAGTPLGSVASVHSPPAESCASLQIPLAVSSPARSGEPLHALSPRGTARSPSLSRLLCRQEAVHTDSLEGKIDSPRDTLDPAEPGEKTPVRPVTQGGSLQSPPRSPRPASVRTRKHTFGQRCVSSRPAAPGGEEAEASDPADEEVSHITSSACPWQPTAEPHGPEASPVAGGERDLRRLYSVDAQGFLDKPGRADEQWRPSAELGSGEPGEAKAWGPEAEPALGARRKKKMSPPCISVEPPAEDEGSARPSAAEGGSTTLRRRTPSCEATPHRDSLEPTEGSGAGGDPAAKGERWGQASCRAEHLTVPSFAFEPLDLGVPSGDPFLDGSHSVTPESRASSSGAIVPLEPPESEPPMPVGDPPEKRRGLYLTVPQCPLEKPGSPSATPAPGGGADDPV

Row | IC50 [2] [nM] | IC50 [3] [nM] | SMILES | anti-hyperalgesic activity in the spinal nerve ligation model of neuropathic pain [1] | IC50 [4] [µM] | Percent Recording Time in Seizure Activity, Baseline [5] [%] | Percent Recording Time in Seizure Activity, Post-injection ([5]; IP 30 mg/kg) [%] | percentage of time in seizure activity compared to both baseline and vehicle ([5]; IP 30 mg/kg)
1 |  |  | COCC(=O)O[C@]1(CCN(C)CCCc2nc3ccccc3[nH]2)CCc2cc(F)ccc2[C@@H]1C(C)C [mibefradil] | anti-hyperalgesic activity |  |  |  | 
2 |  |  | CCC1(C)CC(=O)NC1=O (stereo not shown) [ethosuximide] | anti-hyperalgesic activity |  |  |  | 
3 | < 300 | 230 | CC(C)(C)NC(=O)CN1CCC(CNC(=O)c2cccc(Cl)c2)CC1 [Compound 364, N-((1-(2-(tert-buylamino)-2-oxoethyl)piperidin-4-yl)methyl)-3-chlorobenzamide] |  | ≥ 8.3 | 12.12 ± 1.82 | 0.45 ± 0.20 | 
4 | < 300 | 50 | CC(C)(C)NC(=O)CN1CCC(CNC(=O)c2cc(F)cc(Cl)c2)CC1 [Compound 367, N-((1-(2-(tert-butylamino)-2-oxoethyl)piperidin-4-yl)methyl)-3-chloro-5-fluorobenzamide] |  | ≥ 8.3 | 9.99 ± 2.07 | 0.87 ± 0.44 | 
5 | < 300 | 170 | COc1cc(OC)cc(C(=O)NCC2CCN(CC(=O)NC(C)(C)C)CC2)c1 [Compound 368, N-((1-(2-(tert-butylamino)-2-oxoethyl)piperidin-4-yl)methyl)-3,5-dimethoxybenzamide] |  | ≥ 8.3 |  |  | significant decrease
